# Data reported in patent US11407740B2 (priority 2018, dated 2022).
# System: E. coli
# Assay: Bacterial susceptibility testing, MIC by broth microdilution (CLSI)
# Conditions: Escherichia coli, read-out: E. coli MIC, broth microdilution, 35° C., 18-24 h
# Description: Minimal inhibitory concentrations (MIC) were determined by the broth microdilution method in accordance with the Clinical and Laboratory Standards Institute (CLSI) guidelines. In brief, organism suspensions were adjusted to a 0.5 McFarland standard to yield a final inoculum between 3×10^3 and 7×10^5 colony-forming units (CFU)/mL. Drug dilutions and inocula were made in sterile, cation adjusted Mueller-Hinton Broth (Beckton Dickinson). An inoculum volume of 100 μL was added to wells containing 100 μL of broth with 2-fold serial dilutions of drug.
row,SMILES,MIC [µg/mL]
1,"C[C@@H](O)CNC[C@H](Cc1nc[nH]c(=O)c1O)c1ccc(C#Cc2ccc(CN3CCOCC3)cc2)cc1 (single isomer, unassigned) [Compound 247]",1 to 8
2,"C[C@@H](O)CNC[C@@H](Cc1nc[nH]c(=O)c1O)c1ccc(C#Cc2ccc(CN3CCOCC3)cc2)cc1 (single isomer, unassigned) [Compound 248]",< 1
3,"COC1CN(Cc2ccc(C#Cc3ccc([C@H](CNC4(C)CC4)Cc4nc[nH]c(=O)c4O)cc3)cc2)C1 (single isomer, unassigned) [Compound 250]",< 1
4,"COC1CN(Cc2ccc(C#Cc3ccc([C@@H](CNC4(C)CC4)Cc4nc[nH]c(=O)c4O)cc3)cc2)C1 (single isomer, unassigned) [Compound 251]",< 1
5,"C[C@@H](CF)NCC(Cc1nc[nH]c(=O)c1O)c1ccc(C#Cc2ccc(C(O)CO)cc2)cc1 (single isomer, unassigned) [Compound 252]",< 1
6,"CS(=O)(=O)N1CC[C@@H](NCc2ccc(C#Cc3ccc(C(CO)Cc4nc[nH]c(=O)c4O)cc3)cc2)C1 (single isomer, unassigned) [Compound 254]",< 1
7,"O=c1[nH]cnc(C[C@H](CO)c2ccc(C#Cc3ccc(C4(O)CCNCC4)cc3)cc2)c1O (single isomer, unassigned) [Compound 266]",1 to 8
8,"O=c1[nH]cnc(C[C@H](CO)c2ccc(C#Cc3ccc(CN(CCO)[C@@H]4CCOC4)cc3)cc2)c1O (single isomer, unassigned) [Compound 269]",1 to 8
9,"O=c1[nH]cnc(C[C@H](CO)c2ccc(C#Cc3ccc(C(O)CO)cc3)cc2)c1O (single isomer, unassigned) [Compound 270]",1 to 8
10,"O=c1[nH]cnc(C[C@H](CO)c2ccc(C#Cc3ccc(CN4CC5(CCO5)C4)cc3)cc2F)c1O (single isomer, unassigned) [Compound 273]",< 1
11,"O=c1[nH]cnc(C[C@H](CN2CC(O)C2)c2ccc(C#Cc3ccc(CN4CCOCC4)cc3F)cc2)c1O (single isomer, unassigned) [Compound 275]",< 1
12,"O=c1[nH]cnc(C[C@H](CN2CC(O)C2)c2ccc(C#Cc3ccc(CN4CCOCC4)c(F)c3)cc2)c1O (single isomer, unassigned) [Compound 276]",1 to 8
13,"N#CC1CN(Cc2ccc(C#Cc3ccc([C@@H](CNCC(F)F)Cc4nc[nH]c(=O)c4O)c(F)c3)cc2)C1 (single isomer, unassigned) [Compound 279]",< 1
14,"C[C@H](CF)NCC(Cc1nc[nH]c(=O)c1O)c1ccc(C#Cc2ccc(CN3CCOCC3)cc2)cc1F (single isomer, unassigned) [Compound 280]",< 1
15,"N#C[C@@H]1CCN(Cc2ccc(C#Cc3ccc([C@@H](CNCC(F)F)Cc4nc[nH]c(=O)c4O)c(F)c3)cc2)C1 (single isomer, unassigned) [Compound 281]",< 1
16,"COC1CN(Cc2ccc(C#Cc3ccc([C@@H](CNCC(F)F)Cc4nc[nH]c(=O)c4O)c(F)c3)cc2)C1 (single isomer, unassigned) [Compound 282]",< 1
17,"O=c1[nH]cnc(C[C@H](CNCC(F)F)c2ccc(C#Cc3ccc(CN4CCOCC4)cc3)cc2F)c1O (single isomer, unassigned) [Compound 283]",< 1
18,"COC[C@@H](Cc1nc[nH]c(=O)c1O)c1ccc(C#Cc2ccc(CN[C@H]3CCOC3)cc2)cc1 (single isomer, unassigned) [Compound 285]",< 1
19,"COC[C@@H](Cc1nc[nH]c(=O)c1O)c1ccc(C#Cc2ccc(CN[C@H]3CCNC3)cc2)cc1 (single isomer, unassigned) [Compound 287]",1 to 8
20,"COC[C@@H](Cc1nc[nH]c(=O)c1O)c1ccc(C#Cc2ccc(CN[C@@H]3CCNC3)cc2)cc1 (single isomer, unassigned) [Compound 288]",1 to 8
21,"CS(=O)(=O)N[C@@H](Cc1nc[nH]c(=O)c1O)c1ccc(C#Cc2ccc(C3(O)CCNCC3)cc2)cc1 (single isomer, unassigned) [Compound 296]",8 to 32

row,SMILES,MIC [µg/mL]
1,"CS(=O)(=O)N[C@@H](Cc1nc[nH]c(=O)c1O)c1ccc(C#Cc2ccc(CN3CCNC[C@H]3CO)cc2)cc1 (single isomer, unassigned) [Compound 297]",8 to 32
2,"COC1CN(Cc2ccc(C#Cc3ccc([C@@H](Cc4nc[nH]c(=O)c4O)NS(C)(=O)=O)cc3)cc2)C1 (single isomer, unassigned) [Compound 299]",< 1
3,"CN(C[C@@H](Cc1nc[nH]c(=O)c1O)c1ccc(C#Cc2ccc(CN3CCOCC3)cc2)cc1)C1CC1 (single isomer, unassigned) [Compound 302]",< 1
4,"CC(=O)NC[C@@H](Cc1nc[nH]c(=O)c1O)c1ccc(C#Cc2ccc(CN3CCOCC3)cc2)cc1 (single isomer, unassigned) [Compound 303]",< 1
5,"CS(=O)(=O)NC[C@@H](Cc1nc[nH]c(=O)c1O)c1ccc(C#Cc2ccc(CN3CCOCC3)cc2)cc1 (single isomer, unassigned) [Compound 304]",< 1
6,CC(C)(O)C(Cc1nc[nH]c(=O)c1O)c1ccc(C#Cc2ccc(CN3CCOCC3)cc2)cc1 (centres unmarked) [Compound 1],1 to 8
7,O=c1[nH]cnc(CC(CO)c2ccc(C#Cc3ccc(CN4CCOCC4)cc3)cc2)c1O (centres unmarked) [Compound 2],< 1
8,O=c1[nH]cnc(CC(CNCCF)c2ccc(C#Cc3ccc(CN4CCOCC4)cc3)cc2)c1O (centres unmarked) [Compound 6],1 to 8
9,CC(O)C(Cc1nc[nH]c(=O)c1O)c1ccc(C#Cc2ccc(CN3CCOCC3)cc2)cc1 (centres unmarked) [Compound 12],1 to 8
10,NCC(Cc1nc[nH]c(=O)c1O)c1ccc(C#Cc2ccc(CN3CCOCC3)cc2)cc1 (centres unmarked) [Compound 18],1 to 8
11,O=C(NCCF)C(Cc1nc[nH]c(=O)c1O)c1ccc(C#Cc2ccc(CN3CCOCC3)cc2)cc1 (centres unmarked) [Compound 19],< 1
12,O=C(NCC(F)F)C(Cc1nc[nH]c(=O)c1O)c1ccc(C#Cc2ccc(CN3CCOCC3)cc2)cc1 (centres unmarked) [Compound 22],< 1
13,CNC(=O)C(Cc1nc[nH]c(=O)c1O)c1ccc(C#Cc2ccc(CN3CCOCC3)cc2)cc1 (centres unmarked) [Compound 23],< 1
14,COC(=O)C(Cc1nc[nH]c(=O)c1O)c1ccc(C#Cc2ccc(CN3CCOCC3)cc2)cc1 (centres unmarked) [Compound 24],< 1
15,O=C(NC1CC(F)(F)C1)C(Cc1nc[nH]c(=O)c1O)c1ccc(C#Cc2ccc(CN3CCOCC3)cc2)cc1 (centres unmarked) [Compound 25],1 to 8
16,CCOC(=O)C(Cc1nc[nH]c(=O)c1O)c1ccc(C#Cc2ccc(CNC3CCOC3)cc2)cc1 (centres unmarked) [Compound 26],1 to 8
17,COC(=O)C(Cc1nc[nH]c(=O)c1O)c1ccc(C#Cc2ccc(CNC3CCOC3)cc2)cc1 (centres unmarked) [Compound 27],1 to 8
18,CC(C#N)NC(=O)C(Cc1nc[nH]c(=O)c1O)c1ccc(C#Cc2ccc(CN3CCOCC3)cc2)cc1 (centres unmarked) [Compound 28],1 to 8
19,O=C(NCC(F)F)C(Cc1nc[nH]c(=O)c1O)c1ccc(C#Cc2ccc(Cn3ccnc3CO)cc2)cc1 (centres unmarked) [Compound 29],< 1
20,CC(CO)(Cc1nc[nH]c(=O)c1O)c1ccc(C#Cc2ccc(CN3CCOCC3)cc2)cc1 (centres unmarked) [Compound 31],< 1
21,N#CC1CCN(Cc2ccc(C#Cc3ccc([C@@H](CO)Cc4nc[nH]c(=O)c4O)cc3)cc2)C1 (some centres unmarked) [Compound 33],< 1

row,SMILES,MIC [µg/mL]
1,N#C[C@H]1CCN(Cc2ccc(C#Cc3ccc(C(CO)Cc4nc[nH]c(=O)c4O)cc3)cc2)C1 (some centres unmarked) [Compound 34],< 1
2,N#C[C@@H]1CCN(Cc2ccc(C#Cc3ccc(C(CO)Cc4nc[nH]c(=O)c4O)cc3)cc2)C1 (some centres unmarked) [Compound 36],< 1
3,O=c1[nH]cnc(CC(CO)c2ccc(C#Cc3ccc(CNC4C5COCC54)cc3)cc2)c1O (centres unmarked) [Compound 37],< 1
4,O=c1[nH]cnc(CC(CO)c2ccc(C#Cc3ccc(CNC4CCS(=O)(=O)C4)cc3)cc2)c1O (centres unmarked) [Compound 38],< 1
5,O=c1[nH]cnc(CC(CO)c2ccc(C#Cc3ccc(CN4CC5(CCCO5)C4)cc3)cc2)c1O (centres unmarked) [Compound 42],< 1
6,O=c1[nH]cnc(CC(CO)c2ccc(C#Cc3ccc(CN4CC5(COC5)C4)cc3)cc2)c1O (centres unmarked) [Compound 47],1 to 8
7,O=c1[nH]cnc(CC(CO)c2ccc(C#Cc3ccc(CNC4COC4)cc3)cc2)c1O (centres unmarked) [Compound 49],< 1
8,CCOC(=O)C(Cc1nc[nH]c(=O)c1O)c1ccc(C#Cc2ccc(CNC3COC3)cc2)cc1 (centres unmarked) [Compound 50],1 to 8
9,O=c1[nH]cnc(CC(CO)c2ccc(C#Cc3ccc(CN4CC(N5CCOCC5)C4)cc3)cc2)c1O (centres unmarked) [Compound 51],1 to 8
10,O=c1[nH]cnc(CC(CO)c2ccc(C#Cc3ccc(CNCC4CCOC4)cc3)cc2)c1O (centres unmarked) [Compound 52],1 to 8
11,O=c1[nH]cnc(CC(CO)c2ccc(C#Cc3ccc(CNC4CCOCC4)cc3)cc2)c1O (centres unmarked) [Compound 53],1 to 8
12,N=S1(=O)CCC(NCc2ccc(C#Cc3ccc(C(CO)Cc4nc[nH]c(=O)c4O)cc3)cc2)C1 (centres unmarked) [Compound 56],1 to 8
13,COCCNCc1ccc(C#Cc2ccc(C(CO)Cc3nc[nH]c(=O)c3O)cc2)cc1 (centres unmarked) [Compound 57],1 to 8
14,O=c1[nH]cnc(CC(CO)c2ccc(C#Cc3ccc(CNCC4CC4)cc3)cc2)c1O (centres unmarked) [Compound 58],1 to 8
15,CN1CCN(C(=O)c2ccc(C#Cc3ccc(C(CO)Cc4nc[nH]c(=O)c4O)cc3)cc2)CC1 (centres unmarked) [Compound 59],1 to 8
16,O=c1[nH]cnc(CC(CO)c2ccc(C#Cc3ccc(CNC4CC[S+]([O-])C4)cc3)cc2)c1O (centres unmarked) [Compound 60],1 to 8
17,CNCc1ccc(C#Cc2ccc(C(CO)Cc3nc[nH]c(=O)c3O)cc2)cc1 (centres unmarked) [Compound 61],1 to 8
18,NCc1ccc(C#Cc2ccc(C(CO)Cc3nc[nH]c(=O)c3O)cc2)cc1 (centres unmarked) [Compound 63],1 to 8
19,NC1(Cc2ccc(C#Cc3ccc(C(CO)Cc4nc[nH]c(=O)c4O)cc3)cc2)CCOCC1 (centres unmarked) [Compound 64],1 to 8
20,NC(Cc1nc[nH]c(=O)c1O)c1ccc(C#Cc2ccc(CN3CCOCC3)cc2)cc1 (centres unmarked) [Compound 65],< 1
21,COC1CN(CC(Cc2nc[nH]c(=O)c2O)c2ccc(C#Cc3ccc(CN4CCOCC4)cc3)cc2)C1 (centres unmarked) [Compound 71],< 1

# Same assay, conditions: broth microdilution, 35° C., 18-24 h
row,SMILES,E. coli MIC
1,O=C(NCCF)C(Cc1nc[nH]c(=O)c1O)c1ccc(C#Cc2ccc(CN3CCOCC3)cc2)cc1 (centres unmarked) [Compound 20],A (A: ≤1 μg/mL)
2,O=C(NCCF)C(Cc1nc[nH]c(=O)c1O)c1ccc(C#Cc2ccc(CN3CCOCC3)cc2)cc1 (centres unmarked) [Compound 21],B (B: >1 μg/mL to ≤8.0 μg/mL)
